Laboratory results taken from publication PMC6298744 (Biochemical pharmacology, 2018).
Where a name gives a salt, the structure may show the parent alone. Read-outs that look alike come from different tables or passages of the source.

Assays:
hSERT [1] = biological target: T1, hSERT (Homo sapiens, UniProt P31645); assay: Inhibition of [^125I]RTI-55 binding to hSERT
hNET [2] = biological target: T2, hNET (Homo sapiens, UniProt P23975); assay: biochemical; format: binding
5-HT2C receptor = biological target: T3, 5-HT2C receptor (Homo sapiens, UniProt P28335); assay: cell-based; conditions: for Emax: read-out: % maximum stimulation, 5-HT2C stimulation of IP-1 formation
T3 sequence (P28335 33-458): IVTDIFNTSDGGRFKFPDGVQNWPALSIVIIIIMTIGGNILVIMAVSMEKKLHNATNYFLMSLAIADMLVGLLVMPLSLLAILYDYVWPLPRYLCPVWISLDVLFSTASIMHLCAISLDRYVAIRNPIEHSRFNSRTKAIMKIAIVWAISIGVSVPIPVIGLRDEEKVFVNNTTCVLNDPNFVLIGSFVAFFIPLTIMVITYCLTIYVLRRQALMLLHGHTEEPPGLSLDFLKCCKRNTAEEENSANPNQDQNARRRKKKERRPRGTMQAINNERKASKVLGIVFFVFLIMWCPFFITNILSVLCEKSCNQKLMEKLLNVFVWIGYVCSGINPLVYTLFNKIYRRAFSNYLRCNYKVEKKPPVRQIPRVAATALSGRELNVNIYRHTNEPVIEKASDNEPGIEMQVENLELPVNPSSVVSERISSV

5-HT2A receptor [3] = biological target: T4, 5-HT2A receptor (Homo sapiens, UniProt P28223); assay: cell-based; format: cell-based; conditions: for EC50: EC50, 5-HT2A stimulation of IP-1 formation, mean ± sem; for Emax: read-out: % maximum stimulation, 5-HT2A stimulation of IP-1 formation
T4 sequence (P28223 whole entry): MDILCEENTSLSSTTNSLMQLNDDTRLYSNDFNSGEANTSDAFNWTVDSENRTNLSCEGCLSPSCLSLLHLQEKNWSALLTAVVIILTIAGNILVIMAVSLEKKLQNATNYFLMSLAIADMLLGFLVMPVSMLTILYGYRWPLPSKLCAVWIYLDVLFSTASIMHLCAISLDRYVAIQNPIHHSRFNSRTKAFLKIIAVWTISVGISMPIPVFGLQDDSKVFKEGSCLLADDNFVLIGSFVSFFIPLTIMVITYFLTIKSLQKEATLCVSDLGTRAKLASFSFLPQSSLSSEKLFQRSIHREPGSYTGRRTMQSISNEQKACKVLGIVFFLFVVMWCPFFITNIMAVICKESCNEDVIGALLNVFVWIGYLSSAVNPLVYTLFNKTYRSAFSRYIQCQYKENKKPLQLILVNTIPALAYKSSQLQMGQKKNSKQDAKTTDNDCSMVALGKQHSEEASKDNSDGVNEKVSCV

hDAT [4] = biological target: T5, hDAT (Homo sapiens, UniProt Q01959); assay: Release of preloaded [^3H]DA from HEK-hDAT cells; format: cell-based; conditions: for % maximum release, hDAT [^3H]DA: relative to maximum release induced by METH (1–10 μM)
T5 sequence (Q01959 whole entry): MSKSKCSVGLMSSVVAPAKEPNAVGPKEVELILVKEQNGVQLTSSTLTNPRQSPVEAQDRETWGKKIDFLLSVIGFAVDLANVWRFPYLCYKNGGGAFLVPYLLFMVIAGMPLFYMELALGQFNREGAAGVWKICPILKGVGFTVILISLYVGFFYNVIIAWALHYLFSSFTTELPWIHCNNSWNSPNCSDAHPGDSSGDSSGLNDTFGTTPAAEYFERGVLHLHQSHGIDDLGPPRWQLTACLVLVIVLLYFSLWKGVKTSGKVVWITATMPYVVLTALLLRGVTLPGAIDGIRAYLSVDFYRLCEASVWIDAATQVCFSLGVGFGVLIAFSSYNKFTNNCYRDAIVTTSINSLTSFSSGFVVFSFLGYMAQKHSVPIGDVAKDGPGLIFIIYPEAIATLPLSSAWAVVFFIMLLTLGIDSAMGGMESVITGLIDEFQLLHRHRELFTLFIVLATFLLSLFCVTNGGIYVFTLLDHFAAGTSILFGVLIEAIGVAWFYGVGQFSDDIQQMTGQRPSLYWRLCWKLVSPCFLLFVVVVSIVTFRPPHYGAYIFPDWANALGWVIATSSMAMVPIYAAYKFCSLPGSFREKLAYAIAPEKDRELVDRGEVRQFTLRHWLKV

human 5-HT1A receptor [5] = biological target: T6, human 5-HT1A receptor (Homo sapiens, UniProt P08908); assay: 5-HT1A receptor [^3H]8-OH-DPAT radioligand binding
T6 sequence (P08908 1-422): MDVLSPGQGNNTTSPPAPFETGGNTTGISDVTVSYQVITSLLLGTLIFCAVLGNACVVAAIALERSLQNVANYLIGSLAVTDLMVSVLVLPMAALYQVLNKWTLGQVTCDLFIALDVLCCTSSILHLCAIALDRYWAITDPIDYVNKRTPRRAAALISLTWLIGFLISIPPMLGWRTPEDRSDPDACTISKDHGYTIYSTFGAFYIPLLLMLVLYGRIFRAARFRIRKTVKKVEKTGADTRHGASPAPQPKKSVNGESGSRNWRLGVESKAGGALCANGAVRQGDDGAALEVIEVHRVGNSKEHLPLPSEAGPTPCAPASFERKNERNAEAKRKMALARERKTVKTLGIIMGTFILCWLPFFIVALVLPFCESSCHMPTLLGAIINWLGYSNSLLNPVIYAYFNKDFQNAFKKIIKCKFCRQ

hDAT [6] = biological target: T5, hDAT; assay: Inhibition of [^125I]RTI-55 binding to hDAT
hNET [7] = biological target: T2, hNET; assay: cell-based
hSERT [8] = biological target: T1, hSERT; assay: Inhibition of [^3H]5-HT uptake by HEK-hSERT cells; format: cell-based
human 5-HT1A receptor [9] = biological target: T6, human 5-HT1A receptor; assay: 5-HT1A receptor [^35S]GTPγS binding stimulation; format: biochemical; conditions: for Emax: read-out: % maximum stimulation, 5-HT1A stimulation of [^35S]GTPγS binding
5-HT2A receptor [10] = biological target: T4, 5-HT2A receptor; assay: biochemical; format: binding; conditions: for Selectivity (binding ratios) 5-HT2A : 5-HT1A / Selectivity (binding ratios) 5-HT2A : 5-HT2B / Selectivity (binding ratios) 5-HT2A : 5-HT2C: ratio of Ki values
5-HT2B receptor [11] = biological target: T7, 5-HT2B receptor (Homo sapiens, UniProt P41595); assay: 5-HT2B receptor inositol monophosphate; format: cell-based; conditions: for Emax: read-out: % maximum stimulation, 5-HT2B stimulation of IP-1 formation
T7 sequence (P41595 whole entry): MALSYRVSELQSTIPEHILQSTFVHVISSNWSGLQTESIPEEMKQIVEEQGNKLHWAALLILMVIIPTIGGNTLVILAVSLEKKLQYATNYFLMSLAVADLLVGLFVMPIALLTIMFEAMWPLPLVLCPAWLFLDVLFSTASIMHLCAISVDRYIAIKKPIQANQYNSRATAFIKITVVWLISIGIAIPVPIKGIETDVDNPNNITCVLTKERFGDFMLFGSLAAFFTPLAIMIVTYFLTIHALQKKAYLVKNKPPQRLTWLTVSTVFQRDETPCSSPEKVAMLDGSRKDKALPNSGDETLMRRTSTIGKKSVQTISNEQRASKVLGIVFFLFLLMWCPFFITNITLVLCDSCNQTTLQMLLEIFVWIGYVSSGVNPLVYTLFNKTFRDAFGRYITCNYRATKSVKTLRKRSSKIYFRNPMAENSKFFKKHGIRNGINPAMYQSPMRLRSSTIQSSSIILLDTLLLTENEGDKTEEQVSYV

hSERT [12] = biological target: T1, hSERT; assay: Release of preloaded [^3H]5-HT from HEK-hSERT cells; format: cell-based; conditions: for % maximum release, hSERT [^3H]5-HT: relative to maximum release induced by METH (0.3–1 mM)
hDAT [13] = biological target: T5, hDAT; assay: Inhibition of [^3H]DA uptake by HEK-hDAT cells; format: cell-based
5-HT2B receptor [14] = biological target: T7, 5-HT2B receptor; assay: 5-HT2B receptor [^3H]5-HT binding
hNET [15] = biological target: T2, hNET; assay: Release of preloaded [^3H]NE from HEK-hNET cells; format: cell-based; conditions: for % maximum release, hNET [^3H]NE: relative to maximum release induced by METH (0.3–1 μM)

T2 sequence (P23975 whole entry): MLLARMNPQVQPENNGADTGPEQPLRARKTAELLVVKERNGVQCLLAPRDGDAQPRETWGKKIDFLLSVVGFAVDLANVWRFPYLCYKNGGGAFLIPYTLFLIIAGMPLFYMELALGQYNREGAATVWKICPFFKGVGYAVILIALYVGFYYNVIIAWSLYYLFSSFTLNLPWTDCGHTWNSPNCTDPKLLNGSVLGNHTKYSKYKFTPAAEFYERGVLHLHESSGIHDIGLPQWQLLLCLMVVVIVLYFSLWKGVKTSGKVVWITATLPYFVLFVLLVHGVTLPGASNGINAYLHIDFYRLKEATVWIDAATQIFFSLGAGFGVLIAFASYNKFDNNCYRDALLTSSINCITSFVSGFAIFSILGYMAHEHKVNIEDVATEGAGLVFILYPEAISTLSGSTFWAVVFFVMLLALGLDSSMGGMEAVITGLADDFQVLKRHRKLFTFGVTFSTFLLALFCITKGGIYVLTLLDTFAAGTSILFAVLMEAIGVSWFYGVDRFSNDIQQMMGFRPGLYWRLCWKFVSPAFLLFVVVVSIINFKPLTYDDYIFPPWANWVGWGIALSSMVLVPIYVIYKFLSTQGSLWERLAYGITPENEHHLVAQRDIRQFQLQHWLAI
T1 sequence (P31645 whole entry): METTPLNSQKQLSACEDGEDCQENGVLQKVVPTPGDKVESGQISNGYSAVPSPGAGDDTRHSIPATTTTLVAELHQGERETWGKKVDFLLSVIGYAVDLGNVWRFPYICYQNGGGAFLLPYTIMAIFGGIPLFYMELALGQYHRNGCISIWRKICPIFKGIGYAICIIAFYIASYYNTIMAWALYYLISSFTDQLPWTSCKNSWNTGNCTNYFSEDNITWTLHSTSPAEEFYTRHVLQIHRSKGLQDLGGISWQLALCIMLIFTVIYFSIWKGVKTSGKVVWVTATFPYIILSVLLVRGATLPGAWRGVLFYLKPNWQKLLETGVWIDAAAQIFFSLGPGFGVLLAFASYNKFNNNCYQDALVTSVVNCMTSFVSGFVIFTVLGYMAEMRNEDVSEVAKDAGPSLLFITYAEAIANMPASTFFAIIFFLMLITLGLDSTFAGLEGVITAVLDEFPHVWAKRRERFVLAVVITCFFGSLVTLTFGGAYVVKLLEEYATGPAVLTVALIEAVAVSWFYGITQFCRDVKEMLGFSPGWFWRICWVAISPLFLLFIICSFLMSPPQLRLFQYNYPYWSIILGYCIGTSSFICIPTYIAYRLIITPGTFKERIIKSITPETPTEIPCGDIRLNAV

| SMILES | Ki (hSERT [1]) [nM] | Ki (hNET [2]) [nM] | EC50 (5-HT2C receptor) [nM] | Emax (5-HT2C receptor) [%] | EC50 (5-HT2A receptor [3]) [nM] | Selectivity (functional ratios) 5-HT2A: 5-HT2B (5-HT2A receptor [3]; ratio of EC50 values) | Selectivity (functional ratios) 5-HT2A: 5-HT2C (5-HT2A receptor [3]; ratio of EC50 values) | Emax (5-HT2A receptor [3]) [%] | EC50 (hDAT [4]) [nM] | % maximum release, hDAT [^3H]DA (hDAT [4]) [%] | Ki (human 5-HT1A receptor [5]) [nM] | Ki (hDAT [6]) [nM] | IC50 (hNET [7]) [nM] | IC50 (hSERT [8]) [nM] | EC50 (human 5-HT1A receptor [9]) [nM] | Emax (human 5-HT1A receptor [9]) [%] | Ki (5-HT2A receptor [10]) [nM] | % maximum release, hSERT [^3H]5-HT (hSERT [12]) [%] | IC50 (hDAT [13]) [nM] | % maximum release, hNET [^3H]NE (hNET [15]) [%] | further results |
| --- | --- | --- | --- | --- | --- | --- | --- | --- | --- | --- | --- | --- | --- | --- | --- | --- | --- | --- | --- | --- | --- |
| COc1cc(CCNCc2ccccc2O)c(OC)cc1I [25I-NBOH, 2-(((4-iodo-2,5-dimethoxyphenethyl)amino)methyl)phenol] | 1220 ± 210 | 4060 ± 650 | 2.38 ± 0.72 | 94 | 0.76 ± 0.26 | 146 | 3.1 | 87.5 | > 100000 | −0.56 ± 0.35 | 2220 ± 590 | 8500 ± 380 | 629 ± 93 | 1720 ± 250 | 37000 ± 13000 | 74 | 0.169 ± 0.013 | −0.27 ± 0.40 | 30700 ± 5000 | 16 ± 16 | Selectivity (binding ratios) 5-HT2A : 5-HT1A (5-HT2A receptor [10]): 13100; Selectivity (binding ratios) 5-HT2A : 5-HT2B (5-HT2A receptor [10]): 11; Selectivity (binding ratios) 5-HT2A : 5-HT2C (5-HT2A receptor [10]): 6.1; EC50 (5-HT2B receptor [11]): 111 ± 13 nM; Emax (5-HT2B receptor [11]): 21.3%; EC50 (hSERT [12]): > 100000 nM; Ki (5-HT2B receptor [14]): 1.91 ± 0.48 nM; EC50 (hNET [15]): > 100000 nM |
| COc1cc(CCNCc2ccccc2OC)c(OC)cc1C [25D-NBOMe, 2-(2,5-dimethoxy-4-methylphenyl)-N-(2-methoxybenzyl)ethanamine] | 1780 ± 280 | 6700 ± 1300 | 1.37 ± 0.36 | 96.1 | 1.53 ± 0.1 | 21 | 0.90 | 95.1 | > 100000 | 0.75 ± 0.48 | 4510 ± 730 | 34500 ± 4200 | 1170 ± 140 | 1020 ± 78 | 5900 ± 1900 | 55 | 0.22 ± 0.026 | 0.59 ± 0.24 | > 85000 | 14.3 ± 8.5 | Selectivity (functional ratios) 5-HT2A: 5-HT1A (5-HT2A receptor [3]; ratio of EC50 values): 3900; Selectivity (binding ratios) 5-HT2A : 5-HT1A (5-HT2A receptor [10]): 20500; Selectivity (binding ratios) 5-HT2A : 5-HT2B (5-HT2A receptor [10]): 9.3; Selectivity (binding ratios) 5-HT2A : 5-HT2C (5-HT2A receptor [10]): 3.1; EC50 (5-HT2B receptor [11]): 32.3 ± 6.8 nM; Emax (5-HT2B receptor [11]): 47.7%; EC50 (hSERT [12]): > 100000 nM; Ki (5-HT2B receptor [14]): 2.05 ± 0.49 nM; EC50 (hNET [15]): > 33000 nM |
| NCCc1c[nH]c2ccc(O)cc12 [5-HT, Serotonin hydrochloride, reference compound] |  | 392000 ± 10000 |  |  |  |  |  |  |  |  |  | 375000 ± 83000 | 7200 ± 2500 |  |  |  |  |  | 3360 ± 320 |  |  |
| OC1(c2ccc(Cl)cc2)c2ccccc2C2=NCCN21 (stereo not shown) [Mazindol, reference compound] | 127 ± 39 | 11.6 ± 3.5 |  |  |  |  |  |  |  |  |  |  | 1.1 ± 0.3 | 69 ± 12 |  |  |  |  |  |  |  |
| CCN(CC)C(=O)[C@@H]1C=C2c3cccc4[nH]cc(c34)C[C@H]2N(C)C1 [LSD, (+)lysergic acid diethylamide, reference compound] |  |  |  |  |  |  |  |  |  | 7.4 ± 4.7 |  |  |  |  |  |  |  | −0.59 ± 0.55 |  | 35.7 ± 4.2 | Ki (hSERT [1]; read-out: Inhibition of [^125I]RTI-55 binding Ki, hSERT, mean ± sem, HEK-hSERT): 62900 ± 5000 nM; Ki (hNET [2]; read-out: Inhibition of [^125I]RTI-55 binding Ki, hNET, mean ± sem, HEK-hNET): 76900 ± 8500 nM; % maximum stimulation, 5-HT2A stimulation of IP-1 formation (5-HT2A receptor [3]): 0.706 ± 0.065 (3) 64.5 ± 6.3%; EC50 (hDAT [4]; read-out: Drug-induced release of [^3H]neurotransmitter EC50, hDAT [^3H]DA, mean ± sem, HEK-hDAT): > 54000 nM; Ki (hDAT [6]; read-out: Inhibition of [^125I]RTI-55 binding Ki, hDAT, mean ± sem, HEK-hDAT): > 100000 nM; % maximum stimulation, 5-HT2B stimulation of IP-1 formation (5-HT2B receptor [11]; normalized to the maximal stimulation by 5-HT): 23.3 ± 4.9%; EC50 (hSERT [12]; read-out: Drug-induced release of [^3H]neurotransmitter EC50, hSERT [^3H]5-HT, mean ± sem, HEK-hSERT): > 100000 nM; EC50 (hNET [15]; read-out: Drug-induced release of [^3H]neurotransmitter EC50, hNET [^3H]NE, mean ± sem, HEK-hNET): > 91000 nM |
